Measurements taken from US7855297B2, “Amide derivatives and medicinal use thereof” (Mitsubishi Tanabe Pharma Corporation, priority 2000, dated 2010).
Where a name gives a salt, the structure may show the parent alone.

Compound | melting point [°C]
COc1ccc2c(c1)C(C(=O)N(Cc1ccc(N(C)C)nc1)c1ccc(C(C)C)cc1)CCC2 (stereo not shown) (as salt: hydrochloride) (hydrate or solvate) [Example 55, N-[(6-dimethylaminopyridin-3-yl)methyl]-N-(4-isopropylphenyl)-7-methoxy-1,2,3,4-tetrahydronaphthalene-1-carboxamide hydrochloride ½ hydrate] | 158 to 160
COc1ccc(CN(C(=O)C2CCCc3ccc(OC)cc32)c2ccc(C(C)C)cc2)nc1 (stereo not shown) (as salt: hydrochloride) (hydrate or solvate) [Example 56, N-(4-isopropylphenyl)-N-[(5-methoxypyridin-2-yl)methyl]-7-methoxy-1,2,3,4-tetrahydronaphthalene-1-carboxamide hydrochloride ½ hydrate] | 108 to 110
COc1ccc(N(Cc2ccc(N(C)C)cc2)C(=O)C2CCCc3ccc(F)cc32)cc1 (stereo not shown) (as salt: hydrochloride) (hydrate or solvate) [Example 128, N-[(4-dimethylaminophenyl)methyl]-7-fluoro-N-(4-methoxyphenyl)-1,2,3,4-tetrahydronaphthalene-1-carboxamide hydrochloride ½ hydrate] | 125.4
COc1ccc2c(c1)C(C(=O)N(Cc1ccc(OC)nc1)c1ccc(C(C)C)cc1)CCC2 (stereo not shown) (as salt: hydrochloride) [Example 46, N-(4-isopropylphenyl)-N-[(6-methoxypyridin-3-yl)methyl]-7-methoxy-1,2,3,4-tetrahydronaphthalene-1-carboxamide monohydrochloride] | 114 to 117
CC(C)c1ccc(N(Cc2ccc(N(C)C)cc2)C(=O)C2CCCc3ccc(F)cc32)cc1 (stereo not shown) (as salt: hydrochloride) [Example 127, N-[(4-dimethylaminophenyl)methyl]-7-fluoro-N-(4-isopropylphenyl)-1,2,3,4-tetrahydronaphthalene-1-carboxamide hydrochloride] | 165.6
COc1ccc2c(c1)C(C(=O)N(Cc1ccc(N(C)C)cc1)c1ccc(Br)cc1)CCC2 (stereo not shown) (as salt: hydrochloride) [Example 200, N-(4-bromophenyl)-N-[(4-dimethylaminophenyl)methyl]-7-methoxy-1,2,3,4-tetrahydronaphthalene-1-carboxamide hydrochloride] | 104 to 113
CC(C)c1ccc(N(Cc2ccc(N(C)C)cc2)C(=O)C2CCCc3c(OCCN(C)C)cccc32)cc1 (stereo not shown) (as salt: oxalate) (hydrate or solvate) [Example 113, 5-[2-(dimethylamino)ethoxy]-N-[(4-dimethylaminophenyl)methyl]-N-(4-isopropylphenyl)-1,2,3,4-tetrahydronaphthalene-1-carboxamide oxalate ¼ hydrate] | 155.7
CCn1cc(CN(C(=O)C2CCCc3c(OCCCN(C)C)cccc32)c2ccc(C(C)C)cc2)cn1 (stereo not shown) (as salt: oxalate) [Example 267, 5-[3-(dimethylamino)propoxy]-N-[(1-ethylpyrazol-4-yl)methyl]-N-(4-isopropylphenyl)-1,2,3,4-tetrahydronaphthalene-1-carboxamide 3/2 oxalate] | 142.6
CC(C)c1ccc(N(Cc2ccc(N(C)C)cc2)C(=O)C2CCCc3cc(OCCN(C)C)ccc32)cc1 (stereo not shown) (hydrate or solvate) [Example 106, 6-[2-(dimethylamino)ethoxy]-N-[(4-dimethylaminophenyl)methyl]-N-(4-isopropylphenyl)-1,2,3,4-tetrahydronaphthalene-1-carboxamide ⅕ hydrate] | 132.6
CCc1ccc(N(Cc2ccc(N(C)C)cc2)C(=O)C2CCCc3ccccc32)cc1 (stereo not shown) [Example 1, N-[(4-dimethylaminophenyl)methyl]-N-(4-ethylphenyl)-1,2,3,4-tetrahydronaphthalene-1-carboxamide] | 109 to 110
CC(C)COc1ccc(Br)cc1N(Cc1ccc(N(C)C)cc1)C(=O)C1CCCc2ccccc21 (stereo not shown) [Example 5, N-(5-bromo-2-isobutoxyphenyl)-N-[(4-dimethylaminophenyl)methyl]-1,2,3,4-tetrahydronaphthalene-1-carboxamide] | 176 to 178
CC(C)c1ccc(N(Cc2ccc(N(C)C)cc2)C(=O)C2CCCc3c(O)cccc32)cc1 (stereo not shown) [Example 17, N-[(4-dimethylaminophenyl)methyl]-5-hydroxy-N-(4-isopropylphenyl)-1,2,3,4-tetrahydronaphthalene-1-carboxamide] | 200 to 202
CC(C)c1ccc(N(Cc2ccc(N(C)C)cc2)C(=O)C2CCCc3ccc(O)cc32)cc1 (stereo not shown) [Example 20, N-[(4-dimethylaminophenyl)methyl]-7-hydroxy-N-(4-isopropylphenyl)-1,2,3,4-tetrahydronaphthalene-1-carboxamide] | 214 to 217
COc1ccc2c(c1)C(C(=O)N(Cc1ccc(S(C)(=O)=O)cc1)c1ccc(C(C)C)cc1)CCC2 (stereo not shown) [Example 35, N-(4-isopropylphenyl)-N-[(4-methylsulfonylphenyl)methyl]-7-methoxy-1,2,3,4-tetrahydronaphthalene-1-carboxamide] | 131 to 132
CC(C)c1ccc(N(Cc2ccc(N(C)C)cc2)C(=O)C2CCCc3cc(O)ccc32)cc1 (stereo not shown) [Example 37, N-[(4-dimethylaminophenyl)methyl]-6-hydroxy-N-(4-isopropylphenyl)-1,2,3,4-tetrahydronaphthalene-1-carboxamide] | 169 to 171
CC(C)c1ccc(N(Cc2ccc(N(C)C)cc2)C(=S)C2CCCc3ccccc32)cc1 (stereo not shown) [Example 54, N-[(4-dimethylaminophenyl)methyl]-N-(4-isopropylphenyl)-1,2,3,4-tetrahydronaphthalene-1-carbothioamide] | 123 to 125
COc1ccc2c(c1)C(C(=O)N(Cc1ccc(CO)cc1)c1ccc(C(C)C)cc1)CCC2 (stereo not shown) [Example 95, N-{[4-(hydroxymethyl)phenyl]methyl}-N-(4-isopropylphenyl)-7-methoxy-1,2,3,4-tetrahydronaphthalene-1-carboxamide] | 143.2
COc1ccc(CN(C(=O)C2CCCc3c(O)cccc32)c2ccc(C(C)C)nc2)c(OC)n1 (stereo not shown) [Example 133, N-[(2,6-dimethoxypyridin-3-yl)methyl]-5-hydroxy-N-(6-isopropylpyridin-3-yl)-1,2,3,4-tetrahydronaphthalene-1-carboxamide] | 164
COc1ccc2c(c1)C(C(=O)N(Cc1ccc(N)cc1)c1ccc(C(C)C)cc1)CCC2 (stereo not shown) [Example 167, N-[(4-aminophenyl)methyl]-N-(4-isopropylphenyl)-7-methoxy-1,2,3,4-tetrahydronaphthalene-1-carboxamide] | 115 to 117
CC(C)c1ccc(N(Cc2cnn(CCN(C)C)c2)C(=O)C2CCCc3c(O)cccc32)cc1 (stereo not shown) [Example 355, N-({1-[2-(dimethylamino)ethyl]pyrazol-4-yl}methyl)-5-hydroxy-N-(4-isopropylphenyl)-1,2,3,4-tetrahydronaphthalene-1-carboxamide] | 92
CC(C)c1ccc(N(Cc2cnn(CCO)c2)C(=O)C2CCCc3c(O)cccc32)cc1 (stereo not shown) [Example 362, 5-hydroxy-N-{[1-(2-hydroxyethyl)pyrazol-4-yl]methyl}-N-(4-isopropylphenyl)-1,2,3,4-tetrahydronaphthalene-1-carboxamide] | 110 to 114
CC(C)c1ccc(N(Cc2cnn(CC(F)(F)F)c2)C(=O)C2CCCc3c(O)cccc32)cn1 (stereo not shown) [Example 435, 5-hydroxy-N-(6-isopropylpyridin-3-yl)-N-{[1-(2,2,2-trifluoroethyl)pyrazol-4-yl]methyl}-1,2,3,4-tetrahydronaphthalene-1-carboxamide] | 127.7
